Measured values from paper PMC9598407, “Identification of Staphylococcus aureus Penicillin Binding Protein 4 (PBP4) Inhibitors” (Antibiotics, 2022).
Converted amounts (≈) assume the structure as drawn.

Assays:
[1] = test system: S. aureus COLnex; assay: MIC testing, strain COLnex; format: cell-based; details: Staphylococcus aureus, read-out: Minimum inhibitory concentration
Method: (§1) To further evaluate their potential PBP4 inhibitor activity, prioritized compounds were tested for their ability to reverse PBP4 mediated antibiotic resistance in another S. aureus background using three isogenic strains that became available during our study (generous gift from Dr. S. Chatterjee; University of Maryland). These strains included: (1) COLnex, which is a methicillin susceptible strain, (2) CRB, a methicillin/ceftobiprole-resistant strain of COLnex that overproduces PBP4, and (3) CRB∆pbp4, a methicillin susceptible strain of CRB lacking the pbp4 gene.
(§2) S. aureus strain USA300 is a predominant cause of U.S. community-associated MRSA infections, whereas strain COL is a commonly studied hospital-associated MRSA strain. The S. aureus USA300 pbp4-null strain (USA300Δpbp4) and PBP4 complementation strain (USA300∆pbp4 pPBP4) have been previously described. Strain COLn is a laboratory derived tetracycline susceptible derivative of COL, whereas COLnex is a methicillin susceptible COLn derivative that has been cured of SCCmec thereby removing the mecA, which encodes PBP2a, and has been previously described. Strain CRB is a well-studied MRSA COLnex derivative that contains two amino acid substitutions (E183A and F241R) near the PBP4 active site and a 36-bp duplication 290-bp upstream of the pbp4 open reading frame leading to 20–40-fold overexpression of the gene. All strains were grown in Mueller Hinton (MH) broth at 37 °C, as indicated. Penicillin, streptomycin, ciprofloxacin, mupirocin, meropenem, and mitomycin C were purchased from Fisher Scientific (Waltham, MA, USA), whereas ceftobiprole was obtained from MedChemExpress LLC (Monmouth Junction, NJ, USA). The 30,000-member […]-EXP small molecule chemical library (Blocks 3–5) used in these studies was purchased from ChemBridge Corporation (San Diego, CA, USA).

[2] = test system: S. aureus CRB; assay: MIC testing, strain CRB (PBP4 overproducer); format: cell-based, Staphylococcus aureus; details: for MIC: Staphylococcus aureus, read-out: Minimum inhibitory concentration, strain CRB
Method: as §1, §2

[3] = test system: S. aureus USA300; assay: Minimum inhibitory concentration (MIC) testing, strain USA300; format: cell-based, Staphylococcus aureus; details: for MIC: Staphylococcus aureus, USA300, read-out: Minimum inhibitory concentration; for Fold increase in resistance provided by PBP4: USA300 versus USA300∆pbp4 MIC; for Minimum inhibitory concentration: strain USA300
Method: (§3) The approach used was to initially search for compounds that reverse the antibiotic resistance profile of wild type cells to that of a pbp4 mutant. To define screening conditions three strains were employed, a wild type USA300 MRSA strain, an isogenic pbp4 deletion strain, and a complemented strain harboring a plasmid wildtype pbp4 copy. The antibiotic susceptibility profile of each strain was measured to determine the magnitude with which PBP4 affects resistance to various antibiotics (Table 1). […]. We anticipated that the greater dynamic range of the latter could provide a means to reliably screen for agents that inhibit PBP4 function. […].
as §2

[4] = test system: S. aureus USA300∆pbp4; assay: MIC testing, strain USA300∆pbp4; format: cell-based, Staphylococcus aureus; details: for MIC: Staphylococcus aureus, USA300, read-out: Minimum inhibitory concentration
Method: as §3, §2

[5] = test system: S. aureus CRB∆pbp4; assay: MIC testing, strain CRB∆pbp4; format: cell-based; details: Staphylococcus aureus, read-out: Minimum inhibitory concentration
Method: as §1, §2

[6] = test system: S. aureus USA300∆pbp4 pPBP4; assay: microbe, parasite or virus in culture; format: cell-based; details: Staphylococcus aureus, USA300, read-out: Minimum inhibitory concentration

Row | Compound | MIC [1] [mg/L] | MIC [2] [mg/L] | MIC [3] [mg/L] | Fold increase in resistance provided by PBP4 [3] | Minimum inhibitory concentration [3] [mg/L] | MIC [4] [mg/L] | Minimum inhibitory concentration ([4]; strain USA300∆pbp4) [mg/L] | MIC [5] [mg/L] | MIC [6] [mg/L] | Minimum inhibitory concentration ([2]; strain CRB) [mg/L]
1 | O=C(O)c1cn(C2CC2)c2cc(N3CCNCC3)c(F)cc2c1=O [CIP, ciprofloxacin] | 0.25 (≈ 0.754 µM) | 0.5 (≈ 1.51 µM) | 4 (≈ 12.1 µM) | ~ 4 fold | 4 (≈ 12.1 µM) | 1 (≈ 3.02 µM) | 1 (≈ 3.02 µM) | 0.25 (≈ 0.754 µM) |  | 
2 | C/C(=C\C(=O)OCCCCCCCCC(=O)O)C[C@@H]1OC[C@H](C[C@@H]2O[C@H]2[C@@H](C)[C@H](C)O)[C@@H](O)[C@H]1O [MUP, mupirocin] | 0.03 (≈ 0.0599 µM) | 0.03 (≈ 0.0599 µM) | 0.125 (≈ 0.25 µM) |  |  | 0.125 (≈ 0.25 µM) |  | 0.03 (≈ 0.0599 µM) | 0.125 (≈ 0.25 µM) | 
3 | C[C@@H](O)[C@H]1C(=O)N2C(C(=O)O)=C(S[C@@H]3CN[C@H](C(=O)N(C)C)C3)[C@H](C)[C@H]12 [MER, meropenem] | 1 (≈ 2.61 µM) | 64 (≈ 167 µM) | 4 (≈ 10.4 µM) | 2 fold | 4 (≈ 10.4 µM) | 2 (≈ 5.22 µM) |  | 1 (≈ 2.61 µM) | 4 (≈ 10.4 µM) | 
4 | colistin |  |  |  |  | 128 |  |  |  |  | 128
5 | C[C@H]1COc2c(N3CCN(C)CC3)c(F)cc3c(=O)c(C(=O)O)cn1c23 [LEV, levofloxacin] | 0.25 (≈ 0.692 µM) | 0.5 (≈ 1.38 µM) | 1 (≈ 2.77 µM) |  |  | 0.5 (≈ 1.38 µM) |  | 0.25 (≈ 0.692 µM) | 1 (≈ 2.77 µM) | 
